Laboratory results: patent US4206226A (priority 1978, dated 1980)
Where “and” joins values, the source holds several entries; their conditions need not be identical. Equal entries are not always repeated.

Key:
[1] = Renal Toxicity Screening Protocol, toxicity compared to NSC-119875; type: in vivo; conditions: for Body Weight Loss / Clinical Chemistry - Blood Urea Nitrogen / Clinical Chemistry - Creatinine / Clinical Chemistry - Serum Glutamic Pyruvic Transaminase / Hematology - Hematocrit / Hematology - White Blood Cell / Histopathology - Gastrointestinal / Histopathology - Hematopoietic / Histopathology - Lymphatic / Histopathology - Renal: score relative to NSC119875; for TOTAL SCORE: sum of ten parameter scores
L1210 leukemia [2] = experiment: Combination chemotherapy of advanced L1210 leukemia, cure rate (greater than 60-day survival); type: in vivo, mice; conditions: at least 1000 mg/kg
Procedure: Compound Pt-307 was administered usually in a dosage regimen of 5-60 mg/kg of body weight. This was given as a single dose or on Days 1, 5, and 9 in the standard National Institutes of Health 10-day testing.
CY was utilized at an optimum 50 mg/kg of body weight (range 25-75 mg/kg ) preferably given at Day 3 in the 10-day testing. 5-FU was utilized at 75 mg/kg of body weight (range 50-100 mg/kg) at Day 3. HU was used in a high dosage of at least 1000 mg/kg of body weight (range 1000-1500 mg/kg). The 5-FU and the HU were utilized as ternary compositions only with cyclophosphamide and the platinum compound.
Hydroxyurea is utilized in combination therapy at a high dosage of at least 1000 mg/kg of body weight (range 1000-1500 mg/kg).

L1210 leukemia [3] = experiment: L1210 leukemia in BDF1 mice, treatment (ip) on Day 1 only, % increase in life span; type: in vivo
Procedure: The compound in 1% NaHCO3 solution was tested against the L1210 leukemia in BDF1 mice [10^6 cells given to mice on Day 0, treatment (ip) on Day 1 only] in laboratory and the following % increases in life span (%ILS) were noted: […]

L1210 leukemia [4] = experiment: Delayed (Day 3) treatment of L1210 leukemia, compound singly and in combination regimen; type: in vivo, BDF1 mice; conditions: for >60 day survivors: Day 3
Procedure: The compound in 1% NaHCO3 solution was tested against the L1210 leukemia in BDF1 mice [10^6 cells given to mice on Day 0, treatment (ip) on Day 1 only] in laboratory and the following % increases in life span (%ILS) were noted:
The compound singly and in combination regimen
When treatment was delayed until Day 3, 5 mg/kg gave 51% ILS, 42% ILS and 39% ILS in three experiments.

Approximate LD50 = type: in vivo; conditions: mice
L1210 leukemia [5] = experiment: Second screener, L1210 leukemia, day 1, 5, 9 schedule; type: in vivo, mice; conditions: 6.25 mg/kg
From the text: The compound was submitted to the Drug Development Branch of the National Cancer Institute and assigned NSC Number 271674. It was screened against the L1210 leukemia on a day 1, 5, 9 schedule and the following results were obtained:

L1210 cells = experiment: In vitro growth inhibition of L1210 cells; type: cell-based, murine; conditions: growth inhibition by 50 percent
From the text: (§1) The ID50 refers to the concentration of test compound required to
(§2) inhibit the growth of either the L1210 or L1210/DDP (NSC119875) resistant

[6] = system: L1210/DDP (NSC119875) resistant cells; experiment: In vitro growth inhibition of L1210/DDP (NSC119875 resistant) cells; type: cell-based, murine; conditions: growth inhibition by 50 percent
From the text: as §1, §2

P388 leukemia = experiment: In vivo activity against P388 leukemia; parameters: species or system murine; conditions: Days 1,5,9,13, NSC-119875 6.7 mg/kg, NSC-271674 20.0 mg/kg; for Survival (Days), P388: control 13.3 days
From the text: (§3) Data are expressed as survival in days and as a percentage increase in […]

P388/DDP leukemia = experiment: In vivo activity against P388/DDP leukemia with acquired resistance to NSC-119875; parameters: species or system murine; conditions: for % ILS, P388/DDP / Survival (Days), P388/DDP: Days 1,5,9,13, NSC-119875 6.7 mg/kg, NSC-271674 20.0 mg/kg; for Survival (Days), P388/DDP: control 11.0 days
From the text: P388/DDP refers to a tumor line with acquired resistance to NSC119875.
as §3

B16 melanoma = experiment: Panel of mouse tumors: B16 melanoma, survival time assay; type: in vivo; conditions: ip tumor, D1-9 ip
Procedure: (§4) *Survival time (mean or median) assay
(§5) **Tumor weight inhibition assay.
(§6) Data are expressed as a percentage of the survival time in days or the
(§7) tumor weights in mg of the treated mice divided by the corresponding
(§8) values for the control mice. All testing was performed using both platinu
(§9) compounds in the same experiment. The criteria for activity are as
(§10) follows: confirmed activity (activity from two separate laboratories) of
(§11) % T/C of 150 or more for survival systems and 10% or less for tumor weigh
(§12) inhibition assays. Lower levels of activity such as a % T/C of 125 for
(§13) survival systems and 42% for tumor weight inhibition assays are considere
(§14) statistically significant.

L1210 = experiment: Panel of mouse tumors: L1210, survival time assay; type: in vivo; conditions: ip tumor, D1-9 ip
Procedure: as §4, §6, §7, §8, §9, §10, §11, §12, §13, §14

Lewis lung = experiment: Panel of mouse tumors: Lewis lung, survival time assay; type: in vivo; conditions: iv tumor, D1-9 ip
Procedure: as §4, §6, §7, §8, §9, §10, §11, §12, §13, §14

CD8Fl mammary = experiment: Panel of mouse tumors: CD8Fl mammary, tumor weight inhibition assay; type: in vivo; conditions: sc tumor, Q7DX5 ip
Procedure: as §5, §6, §7, §8, §9, §10, §11, §12, §13, §14

Colon #38 = experiment: Panel of mouse tumors: Colon #38, tumor weight inhibition assay; type: in vivo; conditions: sc tumor, D2,9 ip
Procedure: as §5, §6, §7, §8, §9, §10, §11, §12, §13, §14

murine leukemia L1210 = experiment: Antileukemic activity in mice against murine leukemia L1210 (general statement); type: in vivo
From the text: Some previous platinum chelate compounds show dosage limitation due to renal impairment but the free carboxyl of the present composition offers a possible route of oral […] and absorption by the stomach.

[7] = system: adenocarcinoma of the stomach, pancreas, and large bowel; conditions: combined FU and radiation vs radiation therapy alone, patients; cited from earlier work
[8] = first line, optimal dose (mg/kg/inj): NSC-119875 2, NSC-271674 6.25
[9] = second line, optimal dose (mg/kg/inj): NSC-119875 1, NSC-271674 1.56
[10] = first line, optimal dose (mg/kg/inj): NSC-119875 2, NSC-271674 0.78
[11] = second line, optimal dose (mg/kg/inj): NSC-119875 2, NSC-271674 1.56
[12] = first line, optimal dose (mg/kg/inj): NSC-119875 2, NSC-271674 3.12
[13] = second line, optimal dose (mg/kg/inj): NSC-119875 2, NSC-271674 6.25
[14] = first line, optimal dose (mg/kg/inj): NSC-119875 8, NSC-271674 6.25
[15] = second line, optimal dose (mg/kg/inj): NSC-119875 8, NSC-271674 25
[16] = first line, optimal dose (mg/kg/inj): NSC-119875 8, NSC-271674 12.5
[17] = second line, optimal dose (mg/kg/inj): NSC-119875 16, NSC-271674 50

In the case of `CC(C)N.CC(C)N.[Cl-].[Cl-].[OH-].[OH-].[Pt]` [NSC-256927, bisisopropylamine-cis-dichloro-trans-dihydroxy platinum (IV)], the “Body Weight Loss” value [1] is reported as 2, the “Clinical Chemistry - Blood Urea Nitrogen” value [1] is reported as 1 and the “Clinical Chemistry - Creatinine” value [1] is reported as 1. The “Clinical Chemistry - Serum Glutamic Pyruvic Transaminase” value [1] was 3, the “Hematology - Hematocrit” value [1] was 4 and the “Hematology - White Blood Cell” value [1] was 3. The “Histopathology - Gastrointestinal” value [1] was 1, the “Histopathology - Hematopoietic” value [1] was 4 and the “Histopathology - Lymphatic” value [1] was 4. For the same molecule, the “Histopathology - Renal” value [1] was 2 and the “TOTAL SCORE” value [1] was 25.
In the case of `NC(=O)NO` [Hydroxyurea, hydroxyurea], the “effectiveness when used alone” value (L1210 leukemia [2]) is reported as “only minimally effective”.
For `N.N.O=C([O-])C1(C(=O)[O-])CCC1.[Pt+2]` [NSC-241240, diamine[1,1cyclobutanedicarboxylato (2)-0,0']platinum], the “Body Weight Loss” value [1] was 1, the “Clinical Chemistry - Blood Urea Nitrogen” value [1] was 1 and the “Clinical Chemistry - Creatinine” value [1] was 1. The “Clinical Chemistry - Serum Glutamic Pyruvic Transaminase” value [1] was 3, the “Hematology - Hematocrit” value [1] was 4 and the “Hematology - White Blood Cell” value [1] was 3. The “Histopathology - Gastrointestinal” value [1] was 1, the “Histopathology - Hematopoietic” value [1] was 5 and the “Histopathology - Lymphatic” value [1] was 1. The “Histopathology - Renal” value [1] was 1 and the “TOTAL SCORE” value [1] was 21.
For `N[C@@H]1CCCC[C@H]1N.O=C([O-])c1ccc(C(=O)[O-])c(C(=O)[O-])c1.[H+].[Pt+2]` [NSC-271674, 4-Carboxyphthalato(1,2-diaminocyclohexane)platinum(II)], the “% increases in life span (% ILS)” value (L1210 leukemia [3]; 5 mg/kg ip) was 70%, the “% increases in life span (% ILS)” value (L1210 leukemia [3]; 10 mg/kg ip) was 118% and the “% increases in life span (% ILS)” value (L1210 leukemia [3]; 20 mg/kg ip) was 119%. The “% increases in life span (% ILS)” value (L1210 leukemia [3]; 25 mg/kg ip) was 139%, the “% increases in life span (% ILS)” value (L1210 leukemia [3]; 40 mg/kg ip) was 232% and the “% increases in life span (% ILS)” value (L1210 leukemia [3]; 50 mg/kg ip) was 288%. For the same molecule, the “% increases in life span (% ILS)” value (L1210 leukemia [3]; 60 mg/kg ip) was 174%, the “% ILS” value (L1210 leukemia [4]; 5 mg/kg alone, Day 3 treatment, three experiments) was 51% and 42% and 39% and the “>60 day survivors” value (L1210 leukemia [4]; 5 mg/kg with cyclophosphamide (50 mg/kg) and 5-fluorouracil (75 mg/kg)) was 8 of 10. The “>60 day survivors” value (L1210 leukemia [4]; 5 mg/kg with cyclophosphamide (50 mg/kg), two experiments) was 3 of 10 and no >60 day survivors, the “approximate LD50” value (Approximate LD50) was about 75 mg/kg and the questionably toxic deaths (L1210 leukemia [5]) was 2. The “ID50 L1210” value (L1210 cells) was 0.30 µg/mL, the “ID50 L1210/DDP” value [6] was 0.23 µg/mL and the “% ILS, P388” value (P388 leukemia) was 56%. The “Survival (Days), P388” value (P388 leukemia) was 20.7 days, the “% ILS, P388/DDP” value (P388/DDP leukemia) was 201% and the “Survival (Days), P388/DDP” value (P388/DDP leukemia) was 33.3 days. For the same molecule, the “activity against strains of murine leukemia wherein NSC 119875 has exhausted its activity” value (P388/DDP leukemia; murine leukemia strains) was “appears to be active”, the “% T/C (survival time)” value (B16 melanoma; [8]) was 171% and the “% T/C (survival time)” value (B16 melanoma; [9]) was 159%. For the same molecule, the “% T/C (survival time)” value (L1210; [10]) was 174%, the “% T/C (survival time)” value (L1210; [11]) was 325% and the “% T/C (survival time)” value (Lewis lung; [12]) was 122%. The “% T/C (survival time)” value (Lewis lung; [13]) was 127%, the “% T/C (tumor weight)” value (CD8Fl mammary; [14]) was 11% and the “% T/C (tumor weight)” value (CD8Fl mammary; [15]) was 25%. The “% T/C (tumor weight)” value (Colon #38; [16]) was 50%, the “% T/C (tumor weight)” value (Colon #38; [17]) was 33% and the “testing for renal toxicity” value ([1]; against NSC 119875) was “superior results”. The “Body Weight Loss” value [1] was 3, the “Clinical Chemistry - Blood Urea Nitrogen” value [1] was 1 and the “Clinical Chemistry - Creatinine” value [1] was 1. For the same molecule, the “Clinical Chemistry - Serum Glutamic Pyruvic Transaminase” value [1] was 3, the “Hematology - Hematocrit” value [1] was 3 and the “Hematology - White Blood Cell” value [1] was 3. The “Histopathology - Gastrointestinal” value [1] was 1, the “Histopathology - Hematopoietic” value [1] was 5 and the “Histopathology - Lymphatic” value [1] was 1. For the same molecule, the “Histopathology - Renal” value [1] was 2, the “TOTAL SCORE” value [1] was 23 and the “potentiation in a treatment with cyclophosphamide” value (murine leukemia L1210; CY 50 mg/kg) was “is potentiated”. For the same molecule, the antileukemic activity (murine leukemia L1210; mice, L1210) was “has shown antileukemic activity” and the effective dosages (murine leukemia L1210; mice, L1210) was 5-60 mg/kg of body weight.
In the case of `N.N.[Cl][Pt][Cl]` [NSC-119875, Cis-dichlorodiamino platinum II], the “ID50 L1210” value (L1210 cells) is reported as 0.05 µg/mL, the “ID50 L1210/DDP” value [6] is reported as 2.50 µg/mL and the “% ILS, P388” value (P388 leukemia) is reported as 145%. For the same molecule, the “Survival (Days), P388” value (P388 leukemia) was 32.6 days, the “% ILS, P388/DDP” value (P388/DDP leukemia) was 41% and the “Survival (Days), P388/DDP” value (P388/DDP leukemia) was 15.5 days. The “% T/C (survival time)” value (B16 melanoma; [8]) was 193%, the “% T/C (survival time)” value (B16 melanoma; [9]) was 166% and the “% T/C (survival time)” value (L1210; [10]) was 151%. For the same molecule, the “% T/C (survival time)” value (L1210; [11]) was 182%, the “% T/C (survival time)” value (Lewis lung; [12]) was 135% and the “% T/C (survival time)” value (Lewis lung; [13]) was 177%. The “% T/C (tumor weight)” value (CD8Fl mammary; [14]) was 0%, the “% T/C (tumor weight)” value (CD8Fl mammary; [15]) was 0% and the “% T/C (tumor weight)” value (Colon #38; [16]) was 42%. The “% T/C (tumor weight)” value (Colon #38; [17]) was 11%.
For `NC1CCCCC1N.O=S(=O)([O-])[O-].[Pt+2]` (centres unmarked) [NSC-250427, sulfato(1,2diaminocyclohexane)platinum (II)], the “Body Weight Loss” value [1] was 2, the “Clinical Chemistry - Blood Urea Nitrogen” value [1] was 1 and the “Clinical Chemistry - Creatinine” value [1] was 1. For the same molecule, the “Clinical Chemistry - Serum Glutamic Pyruvic Transaminase” value [1] was 5, the “Hematology - Hematocrit” value [1] was 3 and the “Hematology - White Blood Cell” value [1] was 3. For the same molecule, the “Histopathology - Gastrointestinal” value [1] was 1, the “Histopathology - Hematopoietic” value [1] was 4 and the “Histopathology - Lymphatic” value [1] was 2. For the same molecule, the “Histopathology - Renal” value [1] was 2 and the “TOTAL SCORE” value [1] was 24.
In the case of `O=c1[nH]cc(F)c(=O)[nH]1` [5-fluorouracil], the mean survival times [7] is listed as “significantly increased”.
